# Like-named read-outs stand apart in the source and are kept apart here.
# How the values were obtained:
# human RORγ = molecular target: T1, human RORγ (Homo sapiens, UniProt P51449); assay: In vitro assay of inhibitory effect against RORγ transcriptional activity (GAL4-hRORγ LBD luciferase reporter gene assay in CHO cells); assay type: cell-based; conditions: for hRORγ luciferase activity, %-of-control: vehicle-control 0.2% DMSO alone = 100%
# T1 construct: human RORγ, from Ser253 to Lys518; expressed in transfected cells; host or cells: CHO cells (Chinese hamster ovary), transient co-transfection with pG5-Luc
# T1 sequence (P51449 253-518): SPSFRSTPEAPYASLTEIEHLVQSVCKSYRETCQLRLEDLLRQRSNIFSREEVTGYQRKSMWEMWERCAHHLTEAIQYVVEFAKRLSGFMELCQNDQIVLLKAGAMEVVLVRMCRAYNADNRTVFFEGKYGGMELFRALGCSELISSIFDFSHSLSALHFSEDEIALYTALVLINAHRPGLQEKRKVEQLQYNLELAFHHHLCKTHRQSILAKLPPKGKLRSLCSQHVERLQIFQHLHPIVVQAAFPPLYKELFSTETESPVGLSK
# Protocol: (§1) In Vitro Assay of Inhibitory Effect Against RORγ Transcriptional Activity
# (§2) Inhibitory effect of a test article on transcriptional activity of RORγ was measured by means of the following reporter gene assay.
# (§3) cDNA encoding human and mouse RORγ ligand binding domain (LBD) were obtained based on the sequences of human RORγ (Genebank registered number NM_005060.3) and mouse RORγ (Genebank registered number NM_011281.2) (LBD sequence: human RORγ, from Ser253 to Lys518; mouse RORγ, from Ile251 to Lys516).
# (§4) The LBD cDNA of human or mouse RORγ was inserted into pFA-CMV vector (Strategene), which expresses GAL4-DNA binding domain fusion protein. The resulting plasmids are hereinafter referred to as GAL4-hRORγ plasmid and GAL4-mRORγ plasmid, respectively.
# (§5) GAL4-hRORγ plasmid or GAL4-mRORγ plasmid was transiently co-transfected into Chinese hamster ovary cells (CHO cells) with pG5-Luc (Promega), a reporter plasmid expressing firefly luciferase depending on GAL4.
# (§6) TransIT (Registered trademark) CHO transfection reagent (Mirus) was used to co-transfect GAL4-hRORγ plasmid or GAL4-mRORγ plasmid into CHO cells with pG5-Luc plasmid. One day before the assay, CHO cells were suspended in HAM F-12 Nutrient medium containing 10 v/v % fetal bovine serum and seeded at 6×10^6 cells per 175 cm^2 cell culture flask. Fifty four micro litters of TransIT (Registered trademark) CHO reagent was added into a 15 ml tube containing 1.16 mL of HAM F-12 Nutrient medium without fetal bovine serum, and mixed and incubated at room temperature for 10 min. Thirty six micro litters of plasmid solution containing the GAL4-hRORγ plasmid (400 ng), pG5-Luc plasmid (9000 ng) and pcDNA3 plasmid (8600 ng) were added into the tube and mixed gently. In case of mouse assay, a plasmid solution containing the GAL4-mRORγ plasmid (250 ng), pG5-Luc plasmid (9000 ng) and pcDNA3 plasmid (8750 ng) was added, instead. The mixture was incubated at room temperature for 10 min. Nine micro litters of CHO Mojo Reagent were then added into each tube and mixed gently. The mixture was incubated at room temperature for 10 min. The resultant transfection reagent was applied to the cell culture. After incubation at 37° C., 5% CO2 for 4 hours, the plasmid-transfected CHO cells were harvested with a trypsin treatment. The collected cells were resuspended in HAM F-12 Nutrient medium supplemented with 10 v/v % fetal bovine serum and plated into a 384-well-white plate at 8,000 cells/50 μL/well. The plate was incubated at room temperature for 1 hour and then further incubated at 37° C., 5% CO2 for 3 hours. The test articles were dissolved in dimethylsulfoxide (DMSO) to obtain a concentration of 10 mM. The resulting solution was diluted with a medium just before use and added to the cells in the plate to prepare 8 different concentrations of the test article. The final concentration of DMSO was 0.2 v/v %. After the addition of the test articles, the cells were incubated at 37° C., 5% CO2 for 2 days.
# (§7) RORγ transcriptional activity was detected as the intracellular luciferase activity using SteadyLite HTS Reporter Gene Assay System (Perkin Elmer). StedyLite Reagent was diluted five-fold into a solution containing Extension reagent (10 mM Tricine, 0.2% w/v BSA, 0.02% v/v Tween-20) to obtain the luciferase substrate solution. After the measurement of the cell viability using Resazurin, the culture media in the plate were removed, and then the luciferase substrate solution was added into each well. After the incubation at room temperature for 10 minutes, luminescence of each well was measured by a microplate reader. The luciferase activity derived from the luminescence count in the vehicle-control well treated with 0.2% DMSO alone was defined as 100%, and the luciferase activity in the test article was calculated as a percentage (%-of-control) based on the value of the vehicle-control. EC50 value of test article was calculated by curve fitting with GraphPad Prism. […]
# mouse RORγ = molecular target: T2, mouse RORγ (Mus musculus, UniProt P51450); assay: In vitro assay of inhibitory effect against RORγ transcriptional activity (GAL4-mRORγ LBD luciferase reporter gene assay in CHO cells); assay type: cell-based; conditions: for mRORγ luciferase activity, %-of-control: vehicle-control 0.2% DMSO alone = 100%
# T2 construct: mouse RORγ, from Ile251 to Lys516; expressed in transfected cells; host or cells: CHO cells (Chinese hamster ovary), transient co-transfection with pG5-Luc
# T2 sequence (P51450 251-516): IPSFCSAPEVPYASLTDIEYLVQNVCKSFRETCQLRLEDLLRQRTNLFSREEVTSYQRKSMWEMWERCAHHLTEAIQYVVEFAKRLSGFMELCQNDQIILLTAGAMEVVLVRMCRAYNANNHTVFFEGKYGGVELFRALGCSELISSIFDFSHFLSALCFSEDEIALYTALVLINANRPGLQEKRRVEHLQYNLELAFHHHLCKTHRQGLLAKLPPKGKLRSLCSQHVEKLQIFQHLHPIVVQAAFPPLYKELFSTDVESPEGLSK
# Protocol: as §1, §2, §3, §4, §5, §6, §7
# [1] = GAL4-hRORγ LBD luciferase reporter, CHO cells, read-out: LUC EC50 hRORγ
# [2] = GAL4-mRORγ LBD luciferase reporter, CHO cells, read-out: LUC EC50 mRORγ
# [3] = GAL4-hRORγ LBD / pG5-Luc in CHO cells, 2 days incubation
# [4] = value in parentheses beside the > EC50 bound
# [5] = GAL4-mRORγ LBD / pG5-Luc in CHO cells, 2 days incubation
# [6] = value in parentheses beside the EC50 bound
Structure (SMILES),EC50 (human RORγ; [3]) [µM],EC50 (mouse RORγ; [5]) [µM],also measured
"CCOC(=O)C1CNCC1N1C=C(C(C)C)[C@](C)(c2ccc(CCC(C)(C)C)c(Cl)c2)NC1=O (single isomer, unassigned) [Example 245]",–,–,EC50 (human RORγ; [1]): 0.261 µM; EC50 (mouse RORγ; [2]): 0.301 µM
CC(C)C1=CN(CC(C)(C)CC(=O)O)C(=O)N[C@]1(C)c1ccc(CCC(C)(C)C)c(Cl)c1 [Example 35],> 3.2,> 3.2,"hRORγ luciferase activity, %-of-control (human RORγ; [4]): (51%); mRORγ luciferase activity, %-of-control (mouse RORγ; [4]): (52%)"
CC(C)C1=CN([C@@H]2CC(=O)N(CC(=O)O)C2)C(=O)N[C@@]1(C)c1ccc(CCC(C)(C)C)c(Cl)c1 [Example 163],0.143,0.267,–
CC(C)(C)CCc1ccc([C@@]2(C)NC(=O)N(CCCC(=O)O)C=C2C2CCCCC2)cc1Cl [Example 31],3.07,> 3.2,"mRORγ luciferase activity, %-of-control (mouse RORγ; [4]): (52%)"
CC(C)(C)CCc1ccc([C@@]2(C)NC(=O)N(CCCC(=O)O)C=C2C2CC(F)(F)C2)cc1Cl [Example 145],2.04,3.97,–
"CC(C)C1=CN(C2CCCC(C(=O)O)C2)C(=O)N[C@@]1(C)c1ccc(CCC(C)(C)C)c(Cl)c1 (single isomer, unassigned) [Example 256]",–,–,EC50 (human RORγ; [1]): 0.022 µM; EC50 (mouse RORγ; [2]): 0.026 µM
"CC(C)C1=CN(CCC(=O)O)C(=O)NC1(C)c1ccc(C2CCCC(C)(C)C2)c(Cl)c1 (single isomer, unassigned) [Example 167]",0.065,0.049,–
CC(C)C1=CN(CCC(=O)O)C(=O)N[C@@]1(C)c1ccc([S+]([O-])C2CCCC2)c(Cl)c1 (mixture of isomers) [Example 223],–,–,"EC50 (human RORγ; [1]): > 20 µM; hRORγ luciferase activity, %-of-control (human RORγ; [6]): (78%); EC50 (mouse RORγ; [2]): > 20 µM; mRORγ luciferase activity, %-of-control (mouse RORγ; [6]): (70%)"
CC(C)(C)CCc1ccc(C2(C)NC(=O)N(CCCC(=O)O)C=C2C(C)(C)C)cc1Cl (racemic) [Example 22],0.017,0.029,–
CC(C)C1=CN(CCC(=O)O)C(=O)N[C@@]1(C)c1ccc(OCCC(C)(C)C)c(Cl)c1 [Example 125],< 0.032,< 0.032,–
CC(C)(C)CCc1ccc([C@@]2(C)NC(=O)N(CCCC(=O)O)C=C2C2CCC2)cc1Cl [Example 58],1.25,1.65,–
CC(C)C1=CN([C@H]2C[C@@H](C(=O)O)C2)C(=O)N[C@@]1(C)c1ccc(CCC(C)(C)C)c(Cl)c1 [Example 46],0.017,0.016,–
CCCC(CCC)Cc1ccc([C@]2(C)NC(=O)N(CCC(=O)O)C=C2C(C)C)cc1Cl [Example 178],0.019,0.021,–
"COc1cc(N2C=C(C(C)C)[C@](C)(c3ccc(CCC(C)(C)C)c(Cl)c3)NC2=O)ccc1C(=O)O [Example 226, 4-{(S)-4-[3-Chloro-4-(3,3-dimethyl-butyl)-phenyl]-5-isopropyl-4-methyl-2-oxo-3,4-dihydro-2H-pyrimidin-1-yl}-2-methoxy-benzoic Acid]",–,–,EC50 (human RORγ; [1]): 0.017 µM; EC50 (mouse RORγ; [2]): 0.02 µM
CCC(CC)Cc1ccc([C@]2(C)NC(=O)N(CCC(=O)O)C=C2C(C)C)cc1Cl [Example 177],0.017,0.017,–
CC(C)(C)COc1ccc(C2NC(=O)NC=C2C2CC(C(=O)O)C2)cc1Cl (racemic) [Example 62],0.665,0.52,–
CC(C)C1=CN(CCC(C)C(=O)O)C(=O)NC1(C)c1ccc(OCC(C)(C)C)c(Cl)c1 (mixture of isomers) [Example 21],0.019,0.024,–
COCCOc1ccc([C@]2(C)NC(=O)N(CCC(=O)O)C=C2C(C)C)cc1Cl [Example 127],2.94,1.95,–
CC1=CN(CCCC(=O)O)C(=O)N[C@@]1(C)c1ccc(CCC(C)(C)C)c(Cl)c1 [Example 61],0.143,0.046,–
"CC(C)C1=CN(CCC(=O)O)C(=O)NC1(C)c1ccc(C2CCCC(C)(C)C2)c(Cl)c1 (single isomer, unassigned) [Example 166]",0.014,0.029,–
CC(C)C1=CN(c2ccc(C(=O)O)cc2)C(=O)N[C@@]1(C)c1ccc(CCC(C)(C)C)c(F)c1 [Example 356],–,–,EC50 (human RORγ; [1]): 0.021 µM; EC50 (mouse RORγ; [2]): 0.015 µM
CC(C)C1=CN([C@H]2CC(=O)N(CC(=O)O)C2)C(=O)N[C@@]1(C)c1ccc(CCC(C)(C)C)c(Cl)c1 [Example 162],0.172,0.275,–
CC(C)C1=CN(CCC(=O)O)C(=O)N[C@@]1(C)c1ccc([C@H]2C[C@@H](C(C)(C)C)C2)c(Cl)c1 [Example 302],–,–,EC50 (human RORγ; [1]): 0.028 µM; EC50 (mouse RORγ; [2]): 0.03 µM
"CC(C)C1=CN(C2CCC(C(=O)O)C2)C(=O)N[C@@]1(C)c1ccc(CCC(C)(C)C)c(Cl)c1 (single isomer, unassigned) [Example 280]",–,–,EC50 (human RORγ; [1]): 0.026 µM; EC50 (mouse RORγ; [2]): 0.042 µM
CC(C)C1=CN([C@H](C)CC(=O)O)C(=O)N[C@@]1(C)c1ccc(CCC(C)(C)C)c(Cl)c1 [Example 236],–,–,EC50 (human RORγ; [1]): 0.02 µM; EC50 (mouse RORγ; [2]): 0.015 µM
"CC(C)C1=CN(C2CCC(C(=O)O)C2)C(=O)N[C@@]1(C)c1ccc(CCC(C)(C)C)c(Cl)c1 (single isomer, unassigned) [Example 64]",0.019,0.016,–
CC(C)C1=CN(CCC(=O)O)C(=O)N[C@]1(C)c1ccc(CCC2(C)CC2)c(Cl)c1 [Example 131],> 8,> 8,"hRORγ luciferase activity, %-of-control (human RORγ; [4]): (77%); mRORγ luciferase activity, %-of-control (mouse RORγ; [4]): (81%)"

# Source: US10196363B2, “Dihydropyrimidin-2-one compounds and medical use thereof” (JAPAN TOBACCO INC., priority 2014, dated 2019)
